Assay results reported in patent US20070027064A1, “Pharmaceutical compositions for inhibiting metal ion dependent enzymatic activity and methods for the use thereof” (priority 2003, published 2007).

Experiments:
[1] = system: inducible nitric oxide synthetase; conditions: rat mesangial cells; cited from earlier work
[2] = system: inducible nitric oxide synthetase (iNOS); set-up: inducible nitric oxide synthetase (iNOS): dose or concentration left out as unconfirmed; conditions: murine macrophages, cited from earlier work
[3] = cited from earlier work
cancer cells = conditions: examined over 0.1-10 μM, FIG. 1
Source text: It is recognized that the induction of MMPs is a key event in angiogenesis and metastatic tumor cell invasiveness.

MMP-9 = MMP-9 (Homo sapiens, UniProt P14780)
Procedure: (§1) Sub-confluent cell cultures were incubated for 6-24 h in serum-free DMEM and the resulted supernatant were analyzed for collagenolytic activity. The collagenolytic activity was determined on a gelatin impregnated (1 mg/ml, Difco, Detroit, Mich.), SDS-PAGE 8% gel, with minor modifications. […] The gels were then incubated for 16 hours at 37° C. in 50 mM Tris, 0.2M NaCl, 5 mM CaCl2, 0.02% Brij 35 (w/v) at pH 7.6. At the end of the incubation period, the gels were stained with 0.5% Coomassie G 250 (Bio-Rad Richmond Calif.) in methanol/acetic acid/H2O (30:10:60). The intensity of the various bands was determined on a computerized densitometer (Molecular Dynamics type 300A).

MMP-2 = MMP-2 (Homo sapiens, UniProt P08253)
Procedure: as §1

tumor cells = conditions: 0.0001-0.1 μM TPEN, filters coated with collagen IV
Procedure: Chemotaxis evaluation was performed in a similar way to basement membrane invasion, with the exception that the filters were coated with […] collagen IV instead of Matrigel.

[4] = 6 hours of incubation, HT1080, TPEN 0.001-0.1 micromolar, FIG. 4A
[5] = 24 hours of incubation, HT1080, FIG. 4B

Sequence of MMP-9 (P14780 94-707): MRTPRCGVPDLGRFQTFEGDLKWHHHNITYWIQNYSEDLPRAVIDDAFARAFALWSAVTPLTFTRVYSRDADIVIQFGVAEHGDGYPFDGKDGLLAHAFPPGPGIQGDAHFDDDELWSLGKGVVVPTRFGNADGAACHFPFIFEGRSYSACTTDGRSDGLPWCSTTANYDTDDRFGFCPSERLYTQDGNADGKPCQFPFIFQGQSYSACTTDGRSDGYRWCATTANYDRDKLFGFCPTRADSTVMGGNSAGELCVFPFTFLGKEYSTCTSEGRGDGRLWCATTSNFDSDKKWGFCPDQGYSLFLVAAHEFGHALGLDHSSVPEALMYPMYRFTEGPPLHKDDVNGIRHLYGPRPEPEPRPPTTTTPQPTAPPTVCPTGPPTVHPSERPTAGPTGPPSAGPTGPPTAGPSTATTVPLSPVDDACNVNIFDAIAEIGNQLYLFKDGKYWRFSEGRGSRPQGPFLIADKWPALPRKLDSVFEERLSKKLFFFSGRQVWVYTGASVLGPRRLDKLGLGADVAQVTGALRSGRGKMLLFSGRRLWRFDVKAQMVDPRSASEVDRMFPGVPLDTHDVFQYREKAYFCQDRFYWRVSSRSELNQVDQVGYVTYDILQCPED
Sequence of MMP-2 (P08253 110-660): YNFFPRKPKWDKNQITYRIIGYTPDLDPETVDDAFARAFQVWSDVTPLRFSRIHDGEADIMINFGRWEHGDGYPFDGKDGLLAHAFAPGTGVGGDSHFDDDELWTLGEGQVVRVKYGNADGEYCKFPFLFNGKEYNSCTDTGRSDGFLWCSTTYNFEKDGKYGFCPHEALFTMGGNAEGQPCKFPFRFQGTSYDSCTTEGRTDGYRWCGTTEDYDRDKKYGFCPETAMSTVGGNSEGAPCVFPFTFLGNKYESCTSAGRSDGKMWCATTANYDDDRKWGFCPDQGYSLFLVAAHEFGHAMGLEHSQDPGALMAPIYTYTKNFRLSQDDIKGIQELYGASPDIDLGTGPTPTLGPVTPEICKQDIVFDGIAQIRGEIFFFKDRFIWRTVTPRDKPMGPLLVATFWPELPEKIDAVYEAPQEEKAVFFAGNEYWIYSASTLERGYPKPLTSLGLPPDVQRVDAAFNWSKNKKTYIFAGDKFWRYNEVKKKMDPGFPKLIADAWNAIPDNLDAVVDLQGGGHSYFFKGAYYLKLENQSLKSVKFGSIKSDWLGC

Row | Structure (SMILES) | inducible nitric oxide synthetase protein expression [1] | nitric oxide production [1] | nitric oxide production ([2]; COL-3 between 2.5 and 10 µg/mL, concentration-dependent) | inducible nitric oxide synthetase (iNOS) ([2]; COL-3 between 2.5 and 10, concentration-dependent) | Ion affinity ([3]; rank order of metal ions) | metal binding ([3]; under physiological blood concentration) | concentration above which TPEN has a toxic effect (cancer cells) | MMP-9 activity, % from the control (MMP-9; [4]) [%] | inhibition of MMP-9 activity after 24 hours (MMP-9; [5]) | MMP-2 activity, % from the control (MMP-2; [4]) [%] | inhibition of MMP-2 activity after 24 hours (MMP-2; [5]) | chemotactic activity of the cells (tumor cells)
1 | NC(=O)C1=C(O)C[C@@H]2C[C@@H]3Cc4cccc(O)c4C(=O)C3=C(O)[C@]2(O)C1=O [COL-3, 6-demethyl-6-deoxy-4-dedimethylaminotetracycline] | decrease | decrease | inhibited | inhibited |  |  |  |  |  |  |  | 
2 | c1ccc(CN(CCN(Cc2ccccn2)Cc2ccccn2)Cc2ccccn2)nc1 [TPEN, NNN′N′-Tetrakis-(2-pyridyl-methyl)-ethylenediamine] |  |  |  |  | Zn^2+ > Fe^2+ > Mn^2+ >> Ca^2+ > Mg^2+ | binds zinc, iron, and copper but does not bind magnesium and calcium | above 0.1 μM | 64 | disappeared | 32 | disappeared | not affected
